Assay results: ChEMBL document CHEMBL2439971, “Design, synthesis and antiproliferative evaluation of fluorenone analogs with DNA topoisomerase I inhibitory properties” (Bioorg Med Chem, 2013)

Legend:
HCT-116 [1] = assay: Cytotoxicity against human HCT116 cells after 48 hrs by sulforhodamine B assay; assay type: functional; details: HCT-116, 48 h
HCC 2998 [2] = assay: Cytotoxicity against human HCC2998 cells after 48 hrs by sulforhodamine B assay; assay type: functional; details: HCC 2998, 48 h
NCI-H322M = assay: Cytotoxicity against human NCI-H322M cells after 48 hrs by sulforhodamine B assay; assay type: functional
CAKI-1 = assay: Cytotoxicity against human CAKI-1 cells after 48 hrs by sulforhodamine B assay; assay type: functional; details: CAKI-1, 48 h
A549 = assay: Cytotoxicity against human A549/ATCC cells after 48 hrs by sulforhodamine B assay; assay type: functional; details: A549, 48 h
HL-60(TB) [3] = assay: Cytotoxicity against human HL-60(TB) cells after 48 hrs by sulforhodamine B assay; assay type: functional; details: HL-60, 48 h
K562 = assay: Cytotoxicity against human K562 cells after 48 hrs by sulforhodamine B assay; assay type: functional; details: K562, 48 h
CCRF-CEM = assay: Cytotoxicity against human CCRF-CEM cells after 48 hrs by sulforhodamine B assay; assay type: functional
MDA-MB-468 = assay: Cytotoxicity against human MDA-MB-468 cells at 10 uM after 48 hrs by sulforhodamine B assay relative to control; assay type: functional
BT-549 = assay: Cytotoxicity against human BT549 cells at 10 uM after 48 hrs by sulforhodamine B assay relative to control; assay type: functional
[4] = Cytotoxicity against human Hs 578T cells at 10 uM after 48 hrs by sulforhodamine B assay relative to control; assay type: functional
DU-145 = assay: Cytotoxicity against human DU145 cells at 10 uM after 48 hrs by sulforhodamine B assay relative to control; assay type: functional
UO-31 = assay: Cytotoxicity against human UO31 cells at 10 uM after 48 hrs by sulforhodamine B assay relative to control; assay type: functional
SN12C = assay: Cytotoxicity against human SN12C cells at 10 uM after 48 hrs by sulforhodamine B assay relative to control; assay type: functional
786-0 = assay: Cytotoxicity against human 786-0 cells at 10 uM after 48 hrs by sulforhodamine B assay relative to control; assay type: functional
U-251 [5] = assay: Cytotoxicity against human U251 cells at 10 uM after 48 hrs by sulforhodamine B assay relative to control; assay type: functional
SF-539 [6] = assay: Cytotoxicity against human SF539 cells at 10 uM after 48 hrs by sulforhodamine B assay relative to control; assay type: functional
SF-295 [7] = assay: Cytotoxicity against human SF295 cells at 10 uM after 48 hrs by sulforhodamine B assay relative to control; assay type: functional
HCT-116 [8] = assay: Cytotoxicity against human HCT116 cells at 10 uM after 48 hrs by sulforhodamine B assay relative to control; assay type: functional
HCC 2998 [9] = assay: Cytotoxicity against human HCC2998 cells at 10 uM after 48 hrs by sulforhodamine B assay relative to control; assay type: functional
NCI-H522 = assay: Cytotoxicity against human NCI-H522 cells at 10 uM after 48 hrs by sulforhodamine B assay relative to control; assay type: functional
NCI-H23 = assay: Cytotoxicity against human NCI-H23 cells at 10 uM after 48 hrs by sulforhodamine B assay relative to control; assay type: functional
NCI-H226 = assay: Cytotoxicity against human NCI-H226 cells at 10 uM after 48 hrs by sulforhodamine B assay relative to control; assay type: functional
HOP-92 = assay: Cytotoxicity against human HOP92 cells at 10 uM after 48 hrs by sulforhodamine B assay relative to control; assay type: functional
HL-60(TB) [10] = assay: Cytotoxicity against human HL-60(TB) cells at 10 uM after 48 hrs by sulforhodamine B assay relative to control; assay type: functional
T47D = assay: Cytotoxicity against human T47D cells after 48 hrs by sulforhodamine B assay; assay type: functional
[11] = Cytotoxicity against human Hs 578T cells after 48 hrs by sulforhodamine B assay; assay type: functional
PC-3 = assay: Cytotoxicity against human PC3 cells after 48 hrs by sulforhodamine B assay; assay type: functional, cell-based; details: PC-3, 48 h
RXF 393 = assay: Cytotoxicity against human RXF393 cells after 48 hrs by sulforhodamine B assay; assay type: functional; details: RXF 393, 48 h
OVCAR-8 = assay: Cytotoxicity against human OVCAR8 cells after 48 hrs by sulforhodamine B assay; assay type: functional; details: OVCAR-8, 48 h
OVCAR-4 = assay: Cytotoxicity against human OVCAR4 cells after 48 hrs by sulforhodamine B assay; assay type: functional; details: OVCAR-4, 48 h
OVCAR-3 = assay: Cytotoxicity against human OVCAR3 cells after 48 hrs by sulforhodamine B assay; assay type: functional; details: OVCAR-3, 48 h
UACC-62 = assay: Cytotoxicity against human UACC62 cells after 48 hrs by sulforhodamine B assay; assay type: functional; details: UACC-62, 48 h
SK-MEL-2 = assay: Cytotoxicity against human SK-MEL-2 cells after 48 hrs by sulforhodamine B assay; assay type: functional; details: SK-MEL-2, 48 h
Malme-3M = assay: Cytotoxicity against human MALME-3M cells after 48 hrs by sulforhodamine B assay; assay type: functional
M14 = assay: Cytotoxicity against human M14 cells after 48 hrs by sulforhodamine B assay; assay type: functional; details: M14, 48 h
U-251 [12] = assay: Cytotoxicity against human U251 cells after 48 hrs by sulforhodamine B assay; assay type: functional; details: U-251, 48 h
SF-539 [13] = assay: Cytotoxicity against human SF539 cells after 48 hrs by sulforhodamine B assay; assay type: functional; details: SF-539, 48 h
SF-295 [14] = assay: Cytotoxicity against human SF295 cells after 48 hrs by sulforhodamine B assay; assay type: functional; details: SF-295, 48 h
[15] = read-out: LC50 (the source's name)

CCCCNCC(=O)Nc1ccc2c(c1)C(=O)c1cc(NC(=O)CNCCCC)ccc1-2
GI50 (HCT-116 [1]): 0.81 µM
TGI (HCT-116 [1]): 2.18 µM
CC50 (HCT-116 [1]; [15]): 5.16 µM
GI50 (HCC 2998 [2]): 1.54 µM
TGI (HCC 2998 [2]): 2.95 µM
CC50 (HCC 2998 [2]; [15]): 5.66 µM
GI50 (NCI-H322M): 2.12 µM
TGI (NCI-H322M): 6.93 µM
CC50 (NCI-H322M; [15]): 31.5 µM
GI50 (CAKI-1): 1.79 µM
TGI (CAKI-1): 6.45 µM
CC50 (CAKI-1; [15]): 26.9 µM
GI50 (A549): 1.53 µM
TGI (A549): 3.37 µM
CC50 (A549; [15]): 7.39 µM
GI50 (HL-60(TB) [3]): 1.1 µM
TGI (HL-60(TB) [3]): 2.77 µM
CC50 (HL-60(TB) [3]; [15]): 6.98 µM
GI50 (K562): 0.39 µM
TGI (K562): 1.56 µM
CC50 (K562; [15]): 5.7 µM
GI50 (CCRF-CEM): 1.6 µM
TGI (CCRF-CEM): 4.02 µM
CC50 (CCRF-CEM; [15]): 10.7 µM
Activity (MDA-MB-468): -67.44%
Activity (BT-549): 69.3%
Activity [4]: 37.13%
Activity (DU-145): 35.16%
Activity (UO-31): -42.01%
Activity (SN12C): 67.76%
Activity (786-0): -73.24%
Activity (U-251 [5]): -57.52%
Activity (SF-539 [6]): -82.99%
Activity (SF-295 [7]): -26.11%
Activity (HCT-116 [8]): -89.71%
Activity (HCC 2998 [9]): -50.75%
Activity (NCI-H522): -50.74%
Activity (NCI-H23): 70.39%
Activity (NCI-H226): 67.92%
Activity (HOP-92): 6.92%
Activity (HL-60(TB) [10]): -63.01%
GI50 (T47D): 1.56 µM
TGI (T47D): 2.98 µM
CC50 (T47D; [15]): 5.71 µM
GI50 [11]: 2.63 µM
TGI [11]: 9.23 µM
CC50 [11, 15]: 70.9 µM
GI50 (PC-3): 1.72 µM
IC50 (PC-3): 3.61 µM
LC50 (concentration killing 50% of cells) (PC-3): 13.1 µM
TGI (PC-3): 4.34 µM
GI50 (RXF 393): 1.83 µM
TGI (RXF 393): 3.52 µM
CC50 (RXF 393; [15]): 6.78 µM
GI50 (OVCAR-8): 2.19 µM
TGI (OVCAR-8): 6.16 µM
CC50 (OVCAR-8; [15]): 28.9 µM
GI50 (OVCAR-4): 2.06 µM
TGI (OVCAR-4): 5.02 µM
CC50 (OVCAR-4; [15]): 15.9 µM
GI50 (OVCAR-3): 1.73 µM
TGI (OVCAR-3): 3.23 µM
CC50 (OVCAR-3; [15]): 6.05 µM
GI50 (UACC-62): 1.61 µM
TGI (UACC-62): 3.03 µM
CC50 (UACC-62; [15]): 5.69 µM
GI50 (SK-MEL-2): 1.76 µM
TGI (SK-MEL-2): 3.3 µM
CC50 (SK-MEL-2; [15]): 6.18 µM
GI50 (Malme-3M): 1.94 µM
TGI (Malme-3M): 3.98 µM
CC50 (Malme-3M; [15]): 8.17 µM
GI50 (M14): 1.6 µM
TGI (M14): 3.08 µM
CC50 (M14; [15]): 5.94 µM
GI50 (U-251 [12]): 1.31 µM
TGI (U-251 [12]): 2.65 µM
CC50 (U-251 [12]; [15]): 5.34 µM
GI50 (SF-539 [13]): 1.76 µM
TGI (SF-539 [13]): 3.26 µM
CC50 (SF-539 [13]; [15]): 6.05 µM
GI50 (SF-295 [14]): 1.67 µM
TGI (SF-295 [14]): 3.47 µM
CC50 (SF-295 [14]; [15]): 7.2 µM
